Test: xn = mol fraction of the nth substance listed
Settings: 101.3 kPa

CCCCCCCC(=O)[O-].c1c[nH+]c[nH]1 + O
viscosity [mPa·s]
Settings | x2 = 0 | x2 = 0.0989 | x2 = 0.1964 | x2 = 0.3042 | x2 = 0.4091 | x2 = 0.5119 | x2 = 0.6017 | x2 = 0.6643 | x2 = 0.7995 | x2 = 0.8154
293.15 K | 88.5 | 67.9 | 58.6 | – | – | 45.7 | – | 34.9 | 22.18 | 20.63
298.15 K | 71.3 | 54.06 | 46.3 | 43.3 | 41.1 | – | 32.99 | 29.09 | – | 17.59
303.15 K | 56.48 | 41.7 | 36.57 | – | 33 | 30.4 | 27.23 | – | 16 | 14.75
308.15 K | 45.3 | 33.19 | 29.22 | 27.6 | 26.5 | 25 | 22.3 | 20.32 | 13.52 | 12.62
313.15 K | 36.92 | 27.32 | – | 22.8 | 21.89 | 20.82 | 18.94 | 17.17 | 11.72 | –
318.15 K | 30.56 | – | 20.39 | – | 18.6 | 17.87 | – | 14.9 | 10.4 | –
323.15 K | – | – | 17.55 | – | 16.17 | 15.72 | 14.35 | 13.4 | 9.76 | –

CCCCCCCCO + c1c[nH+]c[nH]1.CCCCCCCC(=O)[O-]
x1 = 1
Settings | viscosity [mPa·s]
298.15 K | 7.84
303.15 K | 6.42
308.15 K | 5.34
313.15 K | 4.66
318.15 K | 3.7
323.15 K | 2.84

CC#N + c1c[nH+]c[nH]1.CCCCCCCC(=O)[O-]
x1 = 1
Settings | viscosity [mPa·s]
293.15 K | 0.35
303.15 K | 0.325
308.15 K | 0.292
313.15 K | 0.279
318.15 K | 0.245

CCCCCCCC(=O)[O-].c1c[nH+]c[nH]1 + CC#N
viscosity [mPa·s]
Settings | x2 = 0 | x2 = 0.1044 | x2 = 0.1986 | x2 = 0.298 | x2 = 0.4005 | x2 = 0.499 | x2 = 0.5995 | x2 = 0.6924 | x2 = 0.7988 | x2 = 0.8996
293.15 K | 88.5 | 66 | 50.42 | – | 25.96 | – | – | 5.8 | 2.747 | –
298.15 K | 71.3 | 54.3 | 41.88 | 32 | 22.7 | 16.11 | 10 | 6.3 | 3.3 | 1.199
303.15 K | – | – | 35.3 | 27.47 | 20.17 | 14.67 | – | 5.6 | 2.402 | 1.21
308.15 K | 45.3 | 37 | 30.04 | 23.68 | 17.89 | – | 8.4 | 5.5 | 2.808 | 1.241
313.15 K | 36.92 | 31.4 | 26.1 | 20.83 | 15.6 | 11.4 | 7.4 | 4.4 | 2.23 | 1.397
318.15 K | 30.56 | 26.31 | 22.3 | – | – | 10.7 | 7.51 | 5.1 | 3.1 | 1.77
323.15 K | 25.33 | 22.52 | 19.55 | 16.21 | 13.2 | – | – | 5.38 | 3.223 | 1.6

O + c1c[nH+]c[nH]1.CCCCCCCC(=O)[O-]
x1 = 1
Settings | viscosity [mPa·s]
298.15 K | 0.89
303.15 K | 0.797
323.15 K | 0.556

CCCCCCCC(=O)[O-].c1c[nH+]c[nH]1 + CCCCCCCCO
viscosity [mPa·s]
Settings | x2 = 0 | x2 = 0.1011 | x2 = 0.1999 | x2 = 0.2991 | x2 = 0.4 | x2 = 0.5007 | x2 = 0.6005 | x2 = 0.6999 | x2 = 0.799 | x2 = 0.8997
293.15 K | 88.5 | 78 | 64.4 | 51.03 | – | 30.85 | – | 18 | 13.4 | 10.5
298.15 K | 71.3 | 63.2 | 52.31 | 41.9 | – | – | – | 15.39 | 11.7 | –
303.15 K | 56.48 | 50.26 | 42.2 | 34.44 | 27.5 | 21.67 | – | 13.24 | 10 | 8.33
308.15 K | 45.3 | – | 34.63 | 28.56 | 23.23 | 18.76 | 14.95 | – | 9.4 | 7.64
313.15 K | 36.92 | 33.14 | 28.5 | 23.44 | 19.4 | 15.57 | – | 9.79 | 7.5 | 5.94
318.15 K | 30.56 | – | 23.63 | 19.8 | 16.4 | 13.05 | 10.7 | 8.46 | – | –
323.15 K | 25.33 | – | 20.17 | – | 14.21 | 11.6 | 9.4 | 7.48 | 5.9 | –

CCO + c1c[nH+]c[nH]1.CCCCCCCC(=O)[O-]
x1 = 1
Settings | viscosity [mPa·s]
298.15 K | 1.1
308.15 K | 0.91
313.15 K | 0.83
318.15 K | 0.72
323.15 K | 0.615

CCCCCCCC(=O)[O-].c1c[nH+]c[nH]1 + CCO
viscosity [mPa·s]
Settings | x2 = 0 | x2 = 0.1043 | x2 = 0.1984 | x2 = 0.301 | x2 = 0.4 | x2 = 0.4786 | x2 = 0.5999 | x2 = 0.7006 | x2 = 0.7999 | x2 = 0.8989
293.15 K | 88.5 | 68.7 | – | – | 29.8 | 22.9 | – | 10.32 | 6.03 | 3.236
298.15 K | 71.3 | 55.78 | 44.5 | 34 | 25.5 | 20 | 13.3 | 9.32 | 5.47 | –
303.15 K | 56.48 | – | 36.53 | 28.9 | 22.3 | 17.8 | – | 8.4 | 4.93 | –
308.15 K | 45.3 | 36.81 | 30.43 | 24.8 | 19.9 | 16.4 | 11.4 | 7.77 | 4.54 | 2.471
313.15 K | – | 31 | 26.09 | – | 17.2 | 14 | – | – | 4.19 | 2.278
318.15 K | 30.56 | 26.2 | 22.4 | 18.8 | 15.3 | 12.6 | – | 6.3 | 3.96 | –
323.15 K | 25.33 | 22.3 | 19.6 | 16.7 | 14.1 | 12 | 8.9 | 6.4 | 4.43 | –
